Measured values published in patent US20210244698A1, “DIFFUSION ENHANCING COMPOUNDS AND THEIR USE WITH THROMBECTOMY AND EMBOLECTOMY AND OTHER VASCULAR DISEASE PROCEDURES” (DIFFUSION PHARMACEUTICALS LLC, priority 2018, published 2021).

How the values were obtained:
[1] = Solubility of TSC in water / aqueous solution with cyclodextrin; assay type: physicochemical
Description: (§1) The use of gamma-cyclodextrin with TSC increases the solubility of TSC in water by 3-7 times. […] The solutions need not be equal-molar. The incorporation of the gamma cyclodextrin also allows for TSC to be absorbed into the blood stream when injected intramuscularly.
A trans carotenoid such as TSC can be formulated with a cyclodextrin as noted above and a non-metabolized sugar such as mannitol (e.g. d-mannitol to adjust the osmotic pressure to be the same as that of blood). Solutions containing over 20 mg TSC/ml of solution can be made this way. This solution can be added to isotonic saline or to other isotonic solutions in order to dilute it and still maintain the proper osmolality.

[2] = Absorption of TSC into the blood stream after intramuscular injection with gamma cyclodextrin; assay type: in vivo; conditions: rats
Description: as §1

[3] = Stability of TSC in formulation as a function of pH; assay type: physicochemical
Protocol: Mannitol can be used to adjust osmolality and its concentration varies depending on the concentration of other ingredients. The glycine is held constant. […] The use of glycine is compatible with lyophilization. Alternatively, the TSC and cyclodextrin is formulated using a 50 mM bicarbonate buffer in place of the glycine.

CC(/C=C/C=C(\C)C(=O)[O-])=C\C=C\C=C(C)\C=C\C=C(/C)C(=O)[O-].[Na+].[Na+] [TSC, trans sodium crocetinate]
TSC content of aqueous solution ([1]; TSC and gamma-cyclodextrin, aqueous solution): ≤ 44 milligrams of TSC per ml of solution
TSC content of solution ([1]; formulated with a cyclodextrin and mannitol): over 20 mg TSC/ml of solution
absorption into the blood stream when injected intramuscularly [2]: Absorption is quick
stability versus pH [3]: more stable at higher pHs
